Laboratory results as given in patent US5925369A, “Bis alkanoyl esters of carnitine having bactericidal, fungicidal and antiprotozoal activity” (priority 1996, dated 1999).

Columns and labels:
[1] = tested on: T. mentagrophytes IDI D1049; assay: Antifungal activity in experimental Tinea pedis in the guinea-pig paw; format: in vivo, Hartley guinea-pig; conditions: for A (clinical sign score) / D (clinical sign score) / E (clinical sign score): scale 0-3
From the text: Twelve male Hartley guinea-pig (C. RIVER), weighing 350-400 gr, have been utilized (3 animals per experimental group).
One clinical isolate (Tricophyton mentagrophytes IDI D 1049, from Immacolata Dermatological Institute of Rome) was utilized.
Microaleuriospores were first harvested by scraping from a 7-day fungal culture grown in Potato dextrose agar, and then resuspended in Sabouraud broth with 0.5% Tween 80.
After washing, the spores were standardized in sterile saline to yield a final concentration of 1.0×10^8 spores/ml.
Each group included 3 animals, and only the left hind paw was inoculated. For the 2 control groups, 3 animals in total were used, as both hind paws of each animal were inoculated.
Filter paper discs (12-mm diameter and 0.3-mm thickness) were covered with aluminum foil in the lower part to prevent the inoculum spreading. This filter was then sticked to a 1×3-cm piece of biadesive plaster, which adhered to a gauze wrapped around the paw.
The filter paper disc was then wetted with 100 μl of the infective suspension, and subsequently fixed to the guinea-pig paw.
The animal paw was tied up with bandage and plaster, and then left in these conditions for 7 days.
Seven days after infection, the infected areas were uncovered and the type of lesion was graded according to an arbitrary scale, as follows:
These "clinical" signs were examined again on days +14, +21, and +31 (day of sacrifice of animals). Three days following the first observation of the type of lesion (day +10), treatments with the differrent formulations were started, and they went on for 20 days (once a day). Two days following the last treatment (day +31), animals were sacrificed and plantar areas of the paws were dissected into 10 parts for each paw.
These sections were plated onto Mycobiotic agar supplemented with Penicillin G and Streptomicin (100 mcg/ml). Volumes of 50 μl of both antibiotics were then added to the plantar sections to prevent any bacterial growth that might interfere with the growth of T. mentagrophytes in the samples under examination.
The data obtained were expressed as the number of microbiologically sterile cutaneous sections over the total examined sections.

Trichomonas vaginalis = assay: MIC on protozoa (Trichomonas vaginalis); format: cell-based; conditions: Metronidazole resistant strains T. vaginalis SS-20 and SS-22 (25 and 50)
Method: Protozoal suspensions are prepared from 24-hour cultures grown at 37° C. and 5% CO2 in DIAMOND T.Y.M. broth supplemented with 10% heat-inactivated FCS.
The suspensions are adjusted, in the same medium, to a final concentration of 2.5×10^5 cells/ml in each well of a 96-well microtiter plate. Substance dilutions (0.3 log) are added to the suspensions in order to have a range of final concentrations from 0.19 to 100 mcg/ml. Microtiters are then incubated at 37° C. and 5% CO2 for 24 hours. MIC is referred to as the minimal concentration inhibiting either protozoa or flagella or undulating membrane motility (Cf. JULIANO C., MARTINOTTI M. G., […] P., In vitro effect of microtubule inhibitors on T. vaginalis, Microbiologia, 8:31-42, 1985. LOVGREN T. and SALMELA I., Invitro sensitivity of T. vaginalis and C. albicans to chemotherapeutic agents, Acta Path. Microbiol. Scand.. 86:155-158, 1978).

[2] = 1.5%, 20 days once a day, day +31

SMILES	eradication of infection ([1]; 1.5% Miconazole)	A (clinical sign score) ([1]; 1.5%, 7th day)	D (clinical sign score) ([1]; 1.5%, 7th day)	E (clinical sign score) ([1]; 1.5%, 7th day)	A (clinical sign score) ([1]; 1.5%, 14th day)	D (clinical sign score) ([1]; 1.5%, 14th day)	E (clinical sign score) ([1]; 1.5%, 14th day)	A (clinical sign score) ([1]; 1.5%, 21st day)	D (clinical sign score) ([1]; 1.5%, 21st day)	E (clinical sign score) ([1]; 1.5%, 21st day)	A (clinical sign score) ([1]; 1.5%, 31st day)	D (clinical sign score) ([1]; 1.5%, 31st day)	E (clinical sign score) ([1]; 1.5%, 31st day)	sterile samples (%) [1, 2]	sterile samples (n = 30), number over total [1, 2]	MIC of Metronidazole (Trichomonas vaginalis)	MIC (Trichomonas vaginalis; Trichomonas vaginalis, 24 h, read-out: MIC of Metronidazole)
Clc1ccc(COC(Cn2ccnc2)c2ccc(Cl)cc2Cl)c(Cl)c1 (centres unmarked) [Miconazole, reference compound]	capable of eradicating infection from all treated samples	0	0	0	0	0	0	0	0	0	0	0	0	100%	30/30	–	–
Cc1ncc([N+](=O)[O-])n1CCO [Metronidazole]	–	–	–	–	–	–	–	–	–	–	–	–	–	–	–	50 µg/mL	25 µg/mL
